# Experimental data reported in patent US20210230131A1, “POLYAMINO BIARYL COMPOUNDS AND THEIR USE” (INSERM (INSTITUT NATIONAL DE LA SANTÉ ET DE LA RECHERCHE …, priority 2018, published 2021).
# Tests used:
# wild-type mice = assay: Y-Maze short-term memory test in wild-type mice; assay type: in vivo; conditions: treated wild-type mice, 1 mg/kg in drinking water
# Protocol: (§1) Thy-Tau22 transgenic colonies (C57Bl/6J genetic background) were obtained by crossing heterozygous males C57Bl/6J with WT females. All animals were housed in a pathogen-free facility at 5 to 6 animals per cage (Techniplast Cages 1284L), with ad libitum access to food and water in a 12/12-hour light-dark cycle and maintained under a constant temperature of 22° C. For treatment, animals were randomly distributed and compound 30 or 31 was provided in the drinking water at a final concentration of 1 mg/kg, ie […] for drinking solutions taking into account an average weight of 25 g/mouse drinking 4 mL/day. […] Food consumption and bodyweight were also assessed. In WT animals, a pilot study of drug treatment was performed for one month to establish the innocuousness of compound 30 and 31 treatments. Thy-Tau22 females were treated for 1 months, starting at 6 months of age.
# Y-Maze: Short-term memory was tested on a Y-maze. The Y-maze consists of three enclosed arms surrounded by spatial clues. One arm was closed off during the learning phase. Each mouse was positioned in the Starting arm. Mice were allowed to explore the maze for 5 min. During 2 min of retention time, the closed arm was opened and the mouse was re-placed in the starting arm. […] Parameters—total distance travelled, velocity, alternation between the arms, entries into the new, starting or other arm—were measured over 5 minutes. […]
# ThyTau22 mice = assay: Y-Maze short-term memory test in Thy-Tau22 mice; assay type: in vivo; conditions: ThyTau22 mice treated one month, 1 mg/kg in drinking water; compared with compound 30
# Protocol: as §1, with “In WT animals, a pilot study of drug treatment was performed for one month to establish the innocuousness of compound 30 and 31 treatments. Thy-Tau22 females were treated for 1 months, starting at 6 months of age.” left out
# Before any behavioral test, exploratory behavior and locomotion were evaluated in treated and untreated animals in an Openfield (OF) 25 cm×25 cm arena. […] Anxiety, which could interfere with the memory test, was evaluated using the elevated plus maze (EPM). […] Locomotion, distance, speed and velocity were measured, as well as the number of entries into each arm, time spent in open versus closed arms, percentage of open arm entries and time spent in the open arms during a 5 minutes test.
# Y-Maze: Short-term memory was tested on a Y-maze. […] Parameters—total distance travelled, velocity, alternation between the arms, entries into the new, starting or other arm—were measured over 5 minutes. […]
# AICD = AICD by Western blot in SY5Y-APP695WT cells; assay type: cell-based, human; conditions: AICD increase compared to chloroquine ([AICD]compound/[AICD]CQ) at 3 μM; mean of at least three experiments
# Source text: Antibodies. Primary antibodies used in this study for western-blot analysis included a homemade rabbit antiserum against the last 17 amino acids of human APP protein sequence, named APP-Cter-C17 (1/5000 in TBS-M). Anti-β-actin (1/10 000 in TBS-M) was obtained from Sigma. Anti-LC3B (1/2000 in TBS-BSA) and anti-p62/SQSTM1 (1/2000 in TBS-M) antibodies were purchased from Cell Signaling Technology. Secondary antibodies (peroxidase-labeled goat anti-rabbit IgG, 1/5000 or peroxidase-labeled horse anti-mouse IgG, 1/50000 in TBS-T) were obtained from Vector Laboratories.
# Cell culture and treatment. The human neuroblastoma cell line SY5Y-APP^695WT was maintained in Dulbecco's modified Eagle medium (DMEM, high glucose, pyruvate—GIBCO by Life Technologies) supplemented with 10% foetal bovine serum, 2 mM L-glutamine, 1 mM non-essential amino acids and penicillin/streptomycin (GIBCO by Life Technologies) at 37° C. in a 5% CO2 humidified incubator. SY5Y-APP^695WT cells were maintained in 75 cm^2 culture flasks (Falcon) with supplemented DMEM medium until they reached 80% of confluence 24 h before treatment.
# For drug treatment, cells were plated at a rate of 5·10^5 cells per well into 12-well plates (Falcon) and cultured with 1 mL supplemented DMEM cell medium for 24 h before drug exposure. The following day, cell medium was replaced with fresh medium containing drugs diluted at the indicated concentrations. Cells were treated for 24 h. At the end of treatments, the cell medium was collected and kept at −80° C. until use for dosage. Then, cells were rinsed once with PBS and extracted in 100 μL of Laemmli buffer (10 mM Tris, 20% glycerol and 2% Sodium dodecyl sulfate) using a cell-scraper. The cell lysate was further sonicated (30 pulses of 0.5 s, 60 Hz) for 5 min. Total protein concentration was determined using the Pierce BCA Protein Assay Kit (Thermo scientific) according to the manufacturer's instructions. Samples were stored at −80° C. until analysis.
# Western Blot Analysis. Cell protein lysates were prepared for western-blot analysis by diluting the sample with 1 volume of NuPAGE® lithium dodecyl sulfate (LDS) 2× sample buffer supplemented with 20% NuPAGE® sample reducing agents (Invitrogen). Samples were heat 10 min at 100° C. 10 μg of total proteins per well were loaded onto a precast 4-12% Criterion XT Bis-Tris polyacrylamide gel (Bio-Rad) and electrophoresis was achieved after applying a tension of 150 V during 90 min using a Criterion electrophoresis Cell with the NuPAGE® MOPS SDS running buffer (1×). Proteins were transferred to a nitrocellulose membrane of […] pore size (G&E Healthcare) using the Criterion blotting system and applying a tension of 100 V for 45 min. To resolve proteins of low molecular weights such as carboxy-terminal fragments of APP, 12% Criterion XT Bis-Tris polyacrylamide gels (Bio-Rad) were used and electrophoresis was performed during 70 min at 150 V in a NuPAGE® MES SDS running buffer (1×). Proteins were transferred to a nitrocellulose membrane of 0.2 μm pore size (G&E Healthcare) at 100 V for 40 min. Molecular weights calibration was achieved using molecular weight markers (Novex and Magic Marks, Life Technologies). Protein transfer and quality were determined by a reversible Ponceau Red coloration (0.2% Xylidine Ponceau Red and 3% Trichloroacetic acid). Membranes were then blocked in 25 mM Tris-HCl pH 8.0, 150 mM NaCl, 0.1% Tween-20 (v/v) (TBS-T) and 5% (w/v) of skimmed milk (TBS-M) or 5% (w/v) of bovine serum albumin (TBS-BSA) depending on the antibody during 1 h. Membrane was rinsed three-times 10 min in TBS-T before incubation with the primary antibody overnight at 4° C. Membrane was rinsed 3 times 10 min with TBS-T and then incubated with the secondary antibody for 45 min at room temperature (RT). […] Quantifications of protein expression levels were performed with ImageJ Software (NIH). […]
Compound,Y-Maze behavioral task (wild-type mice),short memory preservation at the Y-Maze task (ThyTau22 mice),AICD vs CQ (3 μM) (AICD)
"CN(C)Cc1ccccc1-c1ccc(NCCCN2CCCCC2)c(OCCC2CCCCC2)c1 [Compound 31, 3-(2-cyclohexylethoxy)-2′-((dimethylamino)methyl)-N-(3-(piperidin-1-yl)propyl)-[1,1′-biphenyl]-4-amine]",succeed in the Y-Maze behavioral task,higher short memory preservation,0.1
"CN(C)Cc1ccccc1-c1ccc(NCCCN2CCCCC2)c(OCCN2CCCCC2)c1 [Compound 30, 4-(2-[(Dimethylamino)methyl]phenyl)-2-[2-(piperidin-1-yl)ethoxy]-N-[3-(piperidin-1-yl)propyl]aniline]",,,3.6
